Measured values taken from article PMC7419507, “In vitro Cas9-assisted editing of modular polyketide synthase genes to produce desired natural product derivatives” (Nature Communications, 2020).
Several values for one entry are separate records, joined by “and”; a condition that tells them apart may be missing. Equal entries are not always repeated.

Key:
FKBP12 and mTOR = biological target: T1, FKBP12 and mTOR (Homo sapiens, UniProt P42345+P62942); test: Fluoppi analysis: induction of FKBP12-mTOR complex formation in transfected HeLa cells; assay type: cell-based; details: for Foci intensity: raw data, one replicate per line
T1 construct: host or cells: HeLa cells
T1 sequence (P42345 2025-2114 limits assumed): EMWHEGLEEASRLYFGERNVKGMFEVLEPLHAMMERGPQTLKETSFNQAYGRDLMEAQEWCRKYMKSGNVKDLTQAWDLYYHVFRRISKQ
T1 sequence (P62942 whole entry): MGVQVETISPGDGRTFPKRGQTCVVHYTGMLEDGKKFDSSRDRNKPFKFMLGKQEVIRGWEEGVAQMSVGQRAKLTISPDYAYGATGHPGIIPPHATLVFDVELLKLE
Method in brief: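 Complex formation read as fluorescent foci: foci intensity over total per-cell intensity, imaged (×20, 9 fields/well) after fixation and Hoechst stain, giving EC50. Cells: HeLa transiently expressing hAG-mTOR and Ash-FKBP12, exposed to compound concentrations for 1 h at 37 °C.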

[1] = system: Jurkat, SKOV-3 and MESO-1 cells; test: Cytotoxicity assay, statements for all tested cell lines together; assay type: cell-based; details: Jurkat, SKOV-3 and MESO-1 cells, 72 h
Method in brief: (§1)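 Incubate 4 h at 37 °C, 5% CO2. Add 2-fold compound dilutions, 0.5% DMSO. After 72 h, read CellTiter-Glo luminescence.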

[2] = system: malignant pleural mesothelioma MESO-1 cells; test: Cytotoxicity assay (CellTiter-Glo, 72 h), MESO-1; assay type: cell-based; details: raw replicate data
Method in brief: as §1

[3] = Cytotoxicity assay (CellTiter-Glo, 72 h), MESO-1; assay type: cell-based; details: human, MESO-1 malignant pleural mesothelioma cells, raw replicate data, read-out: MESO1 viability (%)
Method in brief: as §1

[4] = Cytotoxicity assay (CellTiter-Glo, 72 h), SKOV-3; assay type: cell-based, human; details: human, raw replicate data, read-out: SKOV3 viability (%)
Method in brief: as §1

[5] = system: human ovarian adenocarcinoma SKOV-3 cells; test: Cytotoxicity assay (CellTiter-Glo, 72 h), SKOV-3; assay type: cell-based; details: raw replicate data
Method in brief: as §1

CO[C@@H]1C[C@H](C[C@@H](C)[C@@H]2CC(=O)[C@H](C)/C=C(\C)[C@@H](O)[C@@H](OC)C(=O)[C@H](C)C[C@H](C)/C=C/C=C/C=C(\C)[C@H](O)C[C@@H]3CC[C@@H](C)[C@@](O)(O3)C(=O)C(=O)N3CCCC[C@H]3C(=O)O2)CC[C@H]1O [Compound 17, (16R)-16-O-demethyl rapamycin]
PPI-inducing (binding enhancing) activity between FKBP12 and mTOR compared with rapamycin (1), in words (FKBP12 and mTOR; Fluoppi): relatively weaker activities | EC50 (FKBP12 and mTOR; Fluoppi, HeLa cells, 1 h treatment, three independent biological replicates, read-out: EC50, induction of the formation of FKBP-mTOR complex): 58 nM | Foci intensity (FKBP12 and mTOR; conc 9.53674e-5 uM): 0.008575 and 0.02543 and 0.01782 | Foci intensity (FKBP12 and mTOR; conc 0.000190735 uM): 0.01164 and 0.0145 and 0.01487 | Foci intensity (FKBP12 and mTOR; conc 0.00038147 uM): 0.01856 and 0.01046 and 0.003947 | Foci intensity (FKBP12 and mTOR; conc 0.000762939 uM): 0.01936 and 0.005776 and 0.02867 | Foci intensity (FKBP12 and mTOR; conc 0.00152588 uM): 0.005895 and 0.00599 and 0.02244 | Foci intensity (FKBP12 and mTOR; conc 0.00305176 uM): 0.01605 and 0.01212 and 0.008772 | Foci intensity (FKBP12 and mTOR; conc 0.00610352 uM): 0.0303 and 0.01224 and 0.02086 | Foci intensity (FKBP12 and mTOR; conc 0.012207 uM): 0.01472 and 0.01188 and 0.01532 | Foci intensity (FKBP12 and mTOR; conc 0.0244141 uM): 0.02138 and 0.01399 and 0.02345 | Foci intensity (FKBP12 and mTOR; conc 0.0488281 uM): 0.1099 and 0.1021 and 0.1573 | Foci intensity (FKBP12 and mTOR; conc 0.0976562 uM): 0.2733 and 0.3147 and 0.3434 | Foci intensity (FKBP12 and mTOR; conc 0.195312 uM): 0.354 and 0.3591 and 0.4502 | Foci intensity (FKBP12 and mTOR; conc 0.390625 uM): 0.4005 and 0.429 and 0.3736 | Foci intensity (FKBP12 and mTOR; conc 0.78125 uM): 0.395 and 0.3804 and 0.4169 | Foci intensity (FKBP12 and mTOR; conc 1.5625 uM): 0.3124 and 0.2927 and 0.3257 | Foci intensity (FKBP12 and mTOR; conc 3.125 uM): 0.3411 and 0.3385 and 0.2558 | Foci intensity (FKBP12 and mTOR; conc 6.25 uM): 0.3119 and 0.3692 and 0.3726 | Foci intensity (FKBP12 and mTOR; conc 12.5 uM): 0.3802 and 0.3948 and 0.3075 | Foci intensity (FKBP12 and mTOR; conc 25 uM): 0.3555 and 0.3578 and 0.2982 | Foci intensity (FKBP12 and mTOR; conc 50 uM): 0.2808 and 0.2653 and 0.2658 | Effect on cell viability, in words [1]: slightly suppressed the cell viabilities | MESO1 viability (%) ([2]; conc 9.53674e-5 uM): 101.2% and 92.1% | MESO1 viability (%) ([2]; conc 0.000190735 uM): 91.6% and 98.7% | MESO1 viability (%) ([2]; conc 0.00038147 uM): 104.8% and 96.5% | MESO1 viability (%) ([2]; conc 0.000762939 uM): 94.3% and 95.5% | MESO1 viability (%) ([2]; conc 0.00152588 uM): 93.6% and 93.5% | MESO1 viability (%) ([2]; conc 0.00305176 uM): 90.4% and 91.1% | MESO1 viability (%) ([2]; conc 0.00610352 uM): 88.7% and 90.9% | MESO1 viability (%) ([2]; conc 0.012207 uM): 91.2% | MESO1 viability (%) ([2]; conc 0.0244141 uM): 80.2% and 88.3% | MESO1 viability (%) ([2]; conc 0.0488281 uM): 80.6% and 75.2% | MESO1 viability (%) ([2]; conc 0.0976562 uM): 77.6% and 79.5% | MESO1 viability (%) ([2]; conc 0.195312 uM): 74.7% and 70.5% | MESO1 viability (%) ([2]; conc 0.390625 uM): 76.8% and 75.4% | MESO1 viability (%) ([2]; conc 0.78125 uM): 70.1% and 72.2% | MESO1 viability (%) ([2]; conc 1.5625 uM): 74.3% and 71.9% | MESO1 viability (%) ([2]; conc 3.125 uM): 66.5% and 67.5% | MESO1 viability (%) ([2]; conc 6.25 uM): 73.9% and 73.5% | MESO1 viability (%) ([2]; conc 12.5 uM): 65.3% and 66.5% | MESO1 viability (%) ([2]; conc 25 uM): 64.8% and 66.6% | MESO1 viability (%) ([2]; conc 50 uM): 62.7% and 65.8% | viability at 72 h, 9.53674e-05 uM ([3]; conc 9.53674e-5 uM): 103% | viability at 72 h, 0.000190735 uM ([3]; conc 0.000190735 uM): 89.1% | viability at 72 h, 0.00038147 uM ([3]; conc 0.00038147 uM): 100% | viability at 72 h, 0.000762939 uM ([3]; conc 0.000762939 uM): 97.1% | viability at 72 h, 0.00152588 uM ([3]; conc 0.00152588 uM): 98.3% | viability at 72 h, 0.00305176 uM ([3]; conc 0.00305176 uM): 92.9% | viability at 72 h, 0.00610352 uM ([3]; conc 0.00610352 uM): 89.6% | viability at 72 h, 0.012207 uM ([3]; conc 0.012207 uM): 83.5% | viability at 72 h, 0.0244141 uM ([3]; conc 0.0244141 uM): 86.9% | viability at 72 h, 0.0488281 uM ([3]; conc 0.0488281 uM): 85.1% | viability at 72 h, 0.0976562 uM ([3]; conc 0.0976562 uM): 78.9% | viability at 72 h, 0.195312 uM ([3]; conc 0.195312 uM): 71.5% | viability at 72 h, 0.390625 uM ([3]; conc 0.390625 uM): 79.6% | viability at 72 h, 0.78125 uM ([3]; conc 0.78125 uM): 73.1% | viability at 72 h, 1.5625 uM ([3]; conc 1.5625 uM): 71.7% | viability at 72 h, 3.125 uM ([3]; conc 3.125 uM): 72.9% | viability at 72 h, 6.25 uM ([3]; conc 6.25 uM): 74.2% | viability at 72 h, 12.5 uM ([3]; conc 12.5 uM): 72.1% | viability at 72 h, 25 uM ([3]; conc 25 uM): 67.4% | viability at 72 h, 50 uM ([3]; conc 50 uM): 61.5% | viability at 72 h, 9.53674e-05 uM ([4]; SKOV-3 cells (ovarian adenocarcinoma), conc 9.53674e-5 uM): 108% | viability at 72 h, 0.000190735 uM ([4]; SKOV-3 cells (ovarian adenocarcinoma), conc 0.000190735 uM): 88.6% | viability at 72 h, 0.00038147 uM ([4]; SKOV-3 cells (ovarian adenocarcinoma), conc 0.00038147 uM): 109% | viability at 72 h, 0.000762939 uM ([4]; SKOV-3 cells (ovarian adenocarcinoma), conc 0.000762939 uM): 108% | viability at 72 h, 0.00152588 uM ([4]; SKOV-3 cells (ovarian adenocarcinoma), conc 0.00152588 uM): 108% | viability at 72 h, 0.00305176 uM ([4]; SKOV-3 cells (ovarian adenocarcinoma), conc 0.00305176 uM): 107% | viability at 72 h, 0.00610352 uM ([4]; SKOV-3 cells (ovarian adenocarcinoma), conc 0.00610352 uM): 103% | viability at 72 h, 0.012207 uM ([4]; SKOV-3 cells (ovarian adenocarcinoma), conc 0.012207 uM): 97.7% | viability at 72 h, 0.0244141 uM ([4]; SKOV-3 cells (ovarian adenocarcinoma), conc 0.0244141 uM): 95.9% | viability at 72 h, 0.0488281 uM ([4]; SKOV-3 cells (ovarian adenocarcinoma), conc 0.0488281 uM): 84.3% | viability at 72 h, 0.0976562 uM ([4]; SKOV-3 cells (ovarian adenocarcinoma), conc 0.0976562 uM): 77.9% | viability at 72 h, 0.195312 uM ([4]; SKOV-3 cells (ovarian adenocarcinoma), conc 0.195312 uM): 70% | viability at 72 h, 0.390625 uM ([4]; SKOV-3 cells (ovarian adenocarcinoma), conc 0.390625 uM): 78.2% | viability at 72 h, 12.5 uM ([4]; SKOV-3 cells (ovarian adenocarcinoma), conc 12.5 uM): 65% | viability at 72 h, 25 uM ([4]; SKOV-3 cells (ovarian adenocarcinoma), conc 25 uM): 64.3% | viability at 72 h, 50 uM ([4]; SKOV-3 cells (ovarian adenocarcinoma), conc 50 uM): 62.5% | viability at 72 h, 0.78125 uM ([4]; SKOV-3 ovarian adenocarcinoma cells, conc 0.78125 uM): 71.6% | viability at 72 h, 1.5625 uM ([4]; SKOV-3 ovarian adenocarcinoma cells, conc 1.5625 uM): 72.2% | viability at 72 h, 3.125 uM ([4]; SKOV-3 ovarian adenocarcinoma cells, conc 3.125 uM): 67.3% | viability at 72 h, 6.25 uM ([4]; SKOV-3 ovarian adenocarcinoma cells, conc 6.25 uM): 66.2% | SKOV3 viability (%) ([5]; conc 9.53674e-5 uM): 109.3% and 114.5% | SKOV3 viability (%) ([5]; conc 0.000190735 uM): 90.8% and 99.6% | SKOV3 viability (%) ([5]; conc 0.00038147 uM): 115.4% and 113.9% | SKOV3 viability (%) ([5]; conc 0.000762939 uM): 109.0% and 102.3% | SKOV3 viability (%) ([5]; conc 0.00152588 uM): 112.3% and 106.1% | SKOV3 viability (%) ([5]; conc 0.00305176 uM): 107.9% | SKOV3 viability (%) ([5]; conc 0.00610352 uM): 101.8% and 106.6% | SKOV3 viability (%) ([5]; conc 0.012207 uM): 96.6% and 104.0% | SKOV3 viability (%) ([5]; conc 0.0244141 uM): 95.8% | SKOV3 viability (%) ([5]; conc 0.0488281 uM): 79.4% and 88.5% | SKOV3 viability (%) ([5]; conc 0.0976562 uM): 86.2% and 76.7% | SKOV3 viability (%) ([5]; conc 0.195312 uM): 69.8% and 72.4% | SKOV3 viability (%) ([5]; conc 0.390625 uM): 81.8% and 79.5% | SKOV3 viability (%) ([5]; conc 0.78125 uM): 70.7% | SKOV3 viability (%) ([5]; conc 1.5625 uM): 65.2% and 67.1% | SKOV3 viability (%) ([5]; conc 3.125 uM): 69.1% | SKOV3 viability (%) ([5]; conc 6.25 uM): 64.7% and 66.1% | SKOV3 viability (%) ([5]; conc 12.5 uM): 62.1% and 61.3% | SKOV3 viability (%) ([5]; conc 25 uM): 65.7% and 67.6% | SKOV3 viability (%) ([5]; conc 50 uM): 57.2% and 61.6%
